Experimental findings from PubChem BioAssay (NCI) are described below.

Each structure is given as a SMILES string.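 Test compounds were applied to cells in 96-well plates for 48 hours at 5 doses. GI50: concentration for 50% inhibition of growth. The concentration for full growth arrest is given as TGI.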

Common to all, as to test: growth of human tumour cells (NCI), 48 h
The test system of assay [1] is CAKI-1 renal.
In assay [2] the test system is EKVX NSCLC.
Assay [3] concerns HL-60(TB) leukemia.
Assay [4] relates to IGROV1 ovarian.
The subject of assay [5] is MOLT-4 leukemia.
The subject of assay [6] is SF-268 CNS.
For assay [7], the system named is HCT-15 colon.
In assay [8] the test system is NCI-H23 lung.
Assay [9] has as its system U251 CNS.

As to `O=c1oc2c3ccc4ccccc4c3n(CCN3CCOCC3)c2c2ccccc12`, the TGI in assay [1] was over 100 µM; in assay [2], over 100 µM; in [3], over 100 µM; in assay [4], over 100 µM; in assay [5], 18.5 µM; in assay [6], over 100 µM.

Regarding `COc1ccc(C(=O)C(c2ccc(OC)cc2)C2C(=O)Oc3ccccc32)cc1` (stereo not drawn), the GI50 in assay [2], in [7], in assay [4], in assay [5], in [8] and in assay [6] was over 100 µM throughout. Further, the TGI in assay [2], in [7], in assay [4], in [5], in [8] and in [6] was over 100 µM throughout.

Turning to `O=C1OC(c2ccccc2)C2CC3CC4(CCC3CN12)OCCO4` (stereo not drawn), the TGI in [1], in [2], in assay [7], in assay [3], in [4] and in [5] was over 100 µM in each case. Moreover, the TGI in [8], in assay [6] and in assay [9] was over 100 µM in each case.

For `COc1ccc2nc3cc(Cl)ccc3c(NCCC(=O)OCC(O)C(O)C(O[C@H](C)C(=O)NC(C)C(=O)NC(CCC(N)=O)C(=O)OCc3ccccc3)C(C=O)NC(C)=O)c2c1` (stereo partly drawn), the TGI in [1] was 40.9 µM; in assay [2], 36.9 µM; in assay [7], 52.4 µM; in assay [3], 56.3 µM; in assay [4], 30.2 µM; in assay [5] it was 44.2 µM. In addition, the TGI in assay [8] was determined as 27.5 µM; in assay [6], 32.8 µM; in [9], 35.7 µM.

Turning to `COc1ccc(C(=O)/C(=N/Nc2ccccc2)c2ccc(OC)cc2)cc1`, the TGI in [1], in [2], in [7], in [4], in [5] and in assay [8] was over 100 µM each time. In addition, in assay [9], the TGI was over 100 µM.

As to `Cc1cc(C)nc(NS(=O)(=O)c2ccc(NC(=O)c3cccc4c(Nc5ccc(S(=O)(=O)Nc6nc(C)cc(C)n6)cc5)c5ccccc5nc34)cc2)n1`, the TGI was 51.6 µM in assay [1]; 55.1 µM in assay [2]; 49 µM in assay [7]; 48.9 µM in assay [3]; over 100 µM in assay [4]; 62.8 µM in [5]. Also, the TGI in [8] amounted to 57.3 µM; in assay [6] it was 93 µM; in assay [9], 38.6 µM.

As to `CN(C)c1ccc(/C=C/C(=O)c2ccccc2)cc1Br`, the TGI in [1] was 32.9 µM; in assay [2], over 100 µM; in assay [7], 54.7 µM; in [4], 48.5 µM; in [5], 69 µM; in [8] it was 40 µM. In addition, the figures for the TGI in [6] and in assay [9] were 49.3 µM and 33.6 µM, respectively.

Regarding `C[C@]12CCC3[C@@H](C[C@H]4OC(=O)[C@@]35CCC(=O)C=C45)C1CCC2=O` (stereo partly drawn), the TGI in [2], in assay [7], in assay [3], in assay [4], in [5] and in [8] was over 100 µM each time. For the same compound, the TGI in assay [6] and in assay [9] was over 100 µM throughout.

Consider `CCOC(=O)NC(=O)c1cn(CCCCCOC(=O)NCCCCCCNC(=O)OCCCCCn2cc(C(=O)NC(=O)OCC)c(=O)[nH]c2=O)c(=O)[nH]c1=O`, for which the TGI in assay [1], in assay [2], in assay [7], in [3], in assay [4] and in assay [5] was over 100 µM each time. For the same compound, the TGI in [6] and in assay [9] was over 100 µM throughout.

For the compound `CN(C)c1ccccc1CC(c1c[nH]c2ccccc12)c1c[nH]c2ccccc12`, the TGI in [1] was determined as 16.3 µM; in assay [2] it was 18.1 µM; in assay [7] it was 28.8 µM; in [3] it was 25.3 µM; in [4] it was 30.9 µM; in assay [5] it was 21.7 µM. Moreover, the figures for the TGI in assay [8], in [6] and in assay [9] were 21.3 µM, 28.8 µM and 24.7 µM, respectively.

Consider `N#Cc1ccc(/C=N\N2C(=O)c3ccccc3C2=O)cc1`, for which the TGI in assay [1], in assay [2], in assay [7], in [3], in assay [4] and in assay [5] was over 100 µM throughout. For the same compound, the TGI in [8] and in assay [6] was over 100 µM each time.

On to `O=C1C(c2ccc([N+](=O)[O-])cc2)=[N+]([O-])c2ccccc21`, for which the TGI was over 100 µM in [1]; over 100 µM in assay [2]; 54.4 µM in assay [7]; 71.9 µM in assay [3]; over 100 µM in assay [4]; over 100 µM in [5]. Further, the values for the TGI in assay [8], in assay [6] and in assay [9] were 63.4 µM, over 100 µM and 36.3 µM, respectively.

Regarding `O=c1c2cc(Br)ccc2[nH]c(=S)n1-c1ccc(Br)cc1`, the TGI in assay [2], in assay [7], in assay [3], in assay [4], in [5] and in assay [8] was over 100 µM each time. In addition, the TGI in assay [6] and in assay [9] was over 100 µM in each case.

In the case of `O=C(/C=C/C=C/c1ccccc1)c1ccc(Nc2nc(Nc3ccccc3)nc(Nc3ccccc3)n2)cc1`, the GI50 in assay [1] is 16.3 µM; in assay [2], 88.2 µM; in assay [7], over 100 µM; in assay [3] it was 28.7 µM; in assay [4], 0.627 µM; in [5], 9.89 µM. The GI50 in assay [8] is over 100 µM; in assay [6] it was 97 µM; in assay [9] it was 63.7 µM. In addition, the TGI in assay [1] was over 100 µM; in assay [2], over 100 µM; in assay [7], over 100 µM; in assay [3], over 100 µM; in assay [4], over 100 µM; in [5] it was 35.8 µM. Moreover, the TGI in assay [8], in [6] and in assay [9] was over 100 µM each time.
